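Protocol summary: plate cells (96-well), add compound at 5 concentrations, incubate 48 h, interpolate endpoints linearly. GI50 marks 50% less growth.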 The source made the active and inactive calls. No stated cut-off is given here; in the data, active = GI50 up to about 1.1 µM and inactive = higher.
Tests used:
Assay in all cases: NCI-60 cell line screen, 48 h
[1] = test system: 786-0
[2] = test system: A498
[3] = test system: A549
[4] = test system: ACHN
[5] = test system: CCRF-CEM
[6] = test system: COLO 205
[7] = test system: DMS-114
[8] = test system: DMS-273
[9] = test system: EKVX
[10] = test system: HCC 2998
[11] = test system: HCT-116
[12] = test system: HCT-15
[13] = test system: HL-60
[14] = test system: HOP-18
[15] = test system: HOP-62
[16] = test system: HOP-92
[17] = test system: HT-29
[18] = test system: IGROV-1
[19] = test system: K562
[20] = test system: KM-20L2
[21] = test system: KM12
[22] = test system: LOX IMVI
[23] = test system: M14
[24] = test system: M19-MEL
[25] = test system: MOLT-4
[26] = test system: Malme-3M
[27] = test system: NCI-H226
[28] = test system: NCI-H23
[29] = test system: NCI-H460
[30] = test system: NCI-H522
[31] = test system: OVCAR-3
[32] = test system: OVCAR-4
[33] = test system: OVCAR-8
[34] = test system: RPMI-8226
[35] = test system: RXF 393
[36] = test system: SF-268
[37] = test system: SF-295
[38] = test system: SF-539
[39] = test system: SK-MEL-28
[40] = test system: SK-MEL-2
[41] = test system: SK-MEL-5
[42] = test system: SK-OV-3
[43] = test system: SN12C
[44] = test system: SNB-19
[45] = test system: SNB-75
[46] = test system: SNB-78
[47] = test system: SW-620
[48] = test system: TK-10
[49] = test system: U-251
[50] = test system: UACC-257
[51] = test system: UACC-62
[52] = test system: UO-31
[53] = test system: XF498
[54] = test system: CAKI-1
[55] = test system: DLD-1
[56] = test system: LXFL 529
[57] = test system: OVCAR-5
[58] = test system: SR
[59] = test system: MCF7
[60] = test system: NCI/ADR-RES

`Cc1ccc(S(=O)(=O)N2CCC2c2ccccc2)cc1` (centres undefined) was tested, and the GI50 [1] was > 100 µM (inactive), the GI50 [2] was > 100 µM (inactive) and the GI50 [3] was 67.5 µM (inactive). For the same molecule, the GI50 [4] was > 100 µM (inactive), the GI50 [5] was 80.4 µM (inactive) and the GI50 [6] was > 100 µM (inactive). The GI50 [7] was 48.1 µM (inactive), the GI50 [8] was 91 µM (inactive) and the GI50 [9] was 64 µM (inactive). For the same molecule, the GI50 [10] was > 100 µM (inactive), the GI50 [11] was 52.8 µM (inactive) and the GI50 [12] was over 100 µM. For the same molecule, the GI50 [13] was 7.13 µM (inactive), the GI50 [14] was 80 µM (inactive) and the GI50 [15] was > 100 µM (inactive). For the same molecule, the GI50 [16] was 10.1 µM (inactive), the GI50 [17] was > 100 µM (inactive) and the GI50 [18] was > 100 µM (inactive). The GI50 [19] was 41.8 µM (inactive), the GI50 [20] was > 100 µM (inactive) and the GI50 [21] was 82 µM (inactive). The GI50 [22] was > 100 µM (inactive), the GI50 [23] was > 100 µM (inactive) and the GI50 [24] was > 100 µM (inactive). The GI50 [25] was 37.8 µM (inactive), the GI50 [26] was > 100 µM (inactive) and the GI50 [27] was 28.6 µM (inactive). The GI50 [28] was 76.4 µM (inactive), the GI50 [29] was > 100 µM (inactive) and the GI50 [30] was 74 µM (inactive). For the same molecule, the GI50 [31] was 81.5 µM (inactive), the GI50 [32] was 46.6 µM (inactive) and the GI50 [33] was > 100 µM (inactive). The GI50 [34] was 66.2 µM (inactive), the GI50 [35] was 84.5 µM (inactive) and the GI50 [36] was 82.2 µM (inactive). For the same molecule, the GI50 [37] was 74.6 µM (inactive), the GI50 [38] was > 100 µM (inactive) and the GI50 [39] was > 100 µM (inactive). For the same molecule, the GI50 [40] was > 100 µM (inactive), the GI50 [41] was 42 µM (inactive) and the GI50 [42] was > 100 µM (inactive). The GI50 [43] was > 100 µM (inactive), the GI50 [44] was 68.7 µM (inactive) and the GI50 [45] was 72.6 µM (inactive). The GI50 [46] was > 100 µM (inactive), the GI50 [47] was > 100 µM (inactive) and the GI50 [48] was > 100 µM (inactive). The GI50 [49] was > 100 µM (inactive), the GI50 [50] was 47.3 µM (inactive) and the GI50 [51] was 76.7 µM (inactive). The GI50 [52] was 23.1 µM (inactive) and the GI50 [53] was 74 µM (inactive).

For `O=C1C=C(N2CCCC2)C=C(N2CCCC2)C1`, the GI50 [1] was > 100 µM (inactive), the GI50 [3] was > 100 µM (inactive) and the GI50 [4] was > 100 µM (inactive). For the same molecule, the GI50 [54] was > 100 µM (inactive), the GI50 [5] was > 100 µM (inactive) and the GI50 [6] was > 100 µM (inactive). The GI50 [55] was > 100 µM (inactive), the GI50 [7] was 79.6 µM (inactive) and the GI50 [8] was > 100 µM (inactive). The GI50 [9] was > 100 µM (inactive), the GI50 [10] was > 100 µM (inactive) and the GI50 [11] was > 100 µM (inactive). For the same molecule, the GI50 [12] was over 100 µM, the GI50 [13] was > 100 µM (inactive) and the GI50 [14] was > 100 µM (inactive). For the same molecule, the GI50 [15] was > 100 µM (inactive), the GI50 [16] was > 100 µM (inactive) and the GI50 [17] was > 100 µM (inactive). For the same molecule, the GI50 [18] was > 100 µM (inactive), the GI50 [19] was > 100 µM (inactive) and the GI50 [20] was > 100 µM (inactive). The GI50 [21] was > 100 µM (inactive), the GI50 [22] was > 100 µM (inactive) and the GI50 [56] was > 100 µM (inactive). The GI50 [23] was > 100 µM (inactive), the GI50 [24] was 28.1 µM (inactive) and the GI50 [25] was > 100 µM (inactive). For the same molecule, the GI50 [26] was > 100 µM (inactive), the GI50 [27] was > 100 µM (inactive) and the GI50 [28] was > 100 µM (inactive). For the same molecule, the GI50 [29] was > 100 µM (inactive), the GI50 [30] was > 100 µM (inactive) and the GI50 [31] was 75.5 µM (inactive). The GI50 [57] was > 100 µM (inactive), the GI50 [33] was > 100 µM (inactive) and the GI50 [34] was > 100 µM (inactive). For the same molecule, the GI50 [35] was > 100 µM (inactive), the GI50 [36] was > 100 µM (inactive) and the GI50 [37] was > 100 µM (inactive). The GI50 [39] was > 100 µM (inactive), the GI50 [40] was > 100 µM (inactive) and the GI50 [41] was > 100 µM (inactive). The GI50 [42] was > 100 µM (inactive), the GI50 [44] was > 100 µM (inactive) and the GI50 [45] was 85.1 µM (inactive). For the same molecule, the GI50 [46] was > 100 µM (inactive), the GI50 [58] was > 100 µM (inactive) and the GI50 [47] was > 100 µM (inactive). For the same molecule, the GI50 [48] was > 100 µM (inactive), the GI50 [49] was > 100 µM (inactive) and the GI50 [50] was > 100 µM (inactive). The GI50 [51] was > 100 µM (inactive), the GI50 [52] was > 100 µM (inactive) and the GI50 [53] was > 100 µM (inactive).

With `CC(C)(C)OC(=O)NC1CCC(C(C)(C)C)CC1` (centres undefined) the GI50 [2] was > 100 µM (inactive), the GI50 [3] was 43.8 µM (inactive) and the GI50 [5] was 36.1 µM (inactive). For the same molecule, the GI50 [6] was > 65.5 µM (inactive), the GI50 [55] was > 100 µM (inactive) and the GI50 [7] was 34 µM (inactive). For the same molecule, the GI50 [8] was > 51.2 µM (inactive), the GI50 [9] was > 64.1 µM (inactive) and the GI50 [10] was > 87.1 µM (inactive). For the same molecule, the GI50 [11] was 43.1 µM (inactive), the GI50 [12] was over 79.6 µM and the GI50 [13] was 15.2 µM (inactive). The GI50 [14] was > 82.8 µM (inactive), the GI50 [15] was > 91 µM (inactive) and the GI50 [17] was 22.3 µM (inactive). The GI50 [18] was > 100 µM (inactive), the GI50 [19] was 51.1 µM (inactive) and the GI50 [20] was 37.9 µM (inactive). For the same molecule, the GI50 [21] was > 81.7 µM (inactive), the GI50 [22] was 40.9 µM (inactive) and the GI50 [24] was 31.3 µM (inactive). For the same molecule, the GI50 [59] was 44.5 µM (inactive), the GI50 [25] was 23.9 µM (inactive) and the GI50 [26] was 33.2 µM (inactive). The GI50 [27] was 26.4 µM (inactive), the GI50 [28] was > 83 µM (inactive) and the GI50 [29] was > 77.3 µM (inactive). The GI50 [30] was 85.1 µM (inactive), the GI50 [60] was 99.1 µM (inactive) and the GI50 [31] was 58.6 µM (inactive). The GI50 [32] was > 74.3 µM (inactive), the GI50 [57] was > 100 µM (inactive) and the GI50 [33] was > 89.7 µM (inactive). The GI50 [34] was 27.3 µM (inactive), the GI50 [35] was 31.3 µM (inactive) and the GI50 [36] was > 100 µM (inactive). The GI50 [37] was 26.5 µM (inactive), the GI50 [38] was > 100 µM (inactive) and the GI50 [39] was > 100 µM (inactive). For the same molecule, the GI50 [40] was 23.3 µM (inactive), the GI50 [41] was 27.7 µM (inactive) and the GI50 [42] was > 100 µM (inactive). The GI50 [43] was > 77.8 µM (inactive), the GI50 [44] was 95.7 µM (inactive) and the GI50 [45] was 40.7 µM (inactive). For the same molecule, the GI50 [46] was > 100 µM (inactive), the GI50 [47] was > 64.3 µM (inactive) and the GI50 [49] was 38.4 µM (inactive). The GI50 [50] was 19.5 µM (inactive), the GI50 [51] was 37.4 µM (inactive) and the GI50 [52] was 59.2 µM (inactive). The GI50 [53] was > 52.2 µM (inactive).

Source: ChEMBL document CHEMBL1201862, “PubChem BioAssay data set” (2004)
